Measured values reported in patent US20140296146A1, “Thermostable Inhibitors of Activation of the Blood Clotting System Through Contact with Foreign Surfaces” (Synapse B.V., priority 2011, published 2014).
Where a SMILES comes first, the peptide text is derived from it. Bridges are numbered along the chain shown (N, C = ends).

Experiments:
contact activation = assay: Thrombin generation (CAT) in platelet poor plasma contact activated with kaolin; format: biochemical, human; settings: concentration that prolongs clotting time of kaolin contact activated plasma four times
Procedure: Thrombin generation was carried out according to WO2003/093831.
Following a double centrifugation at 2500×g for 15 min at room temperature, platelet poor plasma (PPP) was collected from the upper half volume of plasma supernatant, quick frozen and stored at −80° C. The absence of platelet and leucocyte in PPP was checked with an ADVIA 120 counter (Bayer Diagnostics, NY, USA).
Recombinant human tissue factor Innovin® was obtained from Dade Behring (Marburg, Germany) and used at a final concentration of 0.5 pM in PRP and 1 or 5 pM in PPP samples. The phospholipid vesicles used at a final concentration of […] were obtained from Avanti Polar Lipids (Alabaster, Ala., USA) and consisted of 20 mol % phosphatidylserine (PS), 20 mol % phosphatidylethanolamine (PE) and 60 mol % phosphatidylcholine (PC) and were prepared by extrusion method (9,10). Kaolin light (hydrated aluminium silicate) was obtained from Baker Harrison ltd, (Ilford, UK).
Hepes-buffered saline contained 20 mM Hepes (Sigma Aldrich, l'Ile d'Abeau Chesnes, France), 140 mM NaCl and 5 mg/mL bovine serum albumin (BSA) (Euromedex, Souffelweyersheim, France), pH 7.35. This buffer was stored at −20° C. until use. A fresh mixture of fluorogenic substrate and CaCl2 was prepared before each experiment. Fluorogenic substrate, Z-Gly-Gly-Arg-AMC, was obtained from Bachem (Bubendorf, Switzerland). The mixture of fluorogenic substrate 2.5 mM and CaCl2 0.1 M was prepared using buffer containing Hepes 20 mM and 60 mg/mL BSA, pH 7.35. The Calibrator with the activity of 600 nM human thrombin was obtained from Thrombinoscope BV (Maastricht, The Netherlands). Transparent, round bottom Greiner microtiter plates (Greiner ref 65204, Poitiers, France) were used.
Thrombin generation was measured using Calibrated Automated Thrombography (CAT) according to the methodology of WO2003/093831 and a 96-well plate fluorometer (Fluoroscan Ascent Reader, Thermolab systems OY, Helsinki, Finland) equipped with a 390/460 nm filter set. Briefly, 80 μL of plasma is dispensed into the wells of round-bottom 96 well-microtiter plates. 20 μL of a mixture containing tissue factor and phospholipids is added to the PPP sample; alternatively, in order to obtain contact activation, the citrated plasma is preincubated for at least 10 min with 1 mg/ml of Kaolin light. The starting reagent (20 μL per well) contains fluorogenic substrate and CaCl2. […] The most important parameters that can be derived from CAT are lag time, endogenous thrombin potential corresponding to the area under the CAT curve, peak height of thrombin and time to peak.

h-FXIIa [1] = biological target: T1, h-FXIIa (Homo sapiens, UniProt P00748); assay: Stability of CTI, PTI and TICA at RT and at 95° C., read as inhibition of h-FXIIa; format: physicochemical
T1 construct: purchased Enzyme Research Laboratories FXIIa 1212A
T1 sequence (P00748 373-615 limits assumed): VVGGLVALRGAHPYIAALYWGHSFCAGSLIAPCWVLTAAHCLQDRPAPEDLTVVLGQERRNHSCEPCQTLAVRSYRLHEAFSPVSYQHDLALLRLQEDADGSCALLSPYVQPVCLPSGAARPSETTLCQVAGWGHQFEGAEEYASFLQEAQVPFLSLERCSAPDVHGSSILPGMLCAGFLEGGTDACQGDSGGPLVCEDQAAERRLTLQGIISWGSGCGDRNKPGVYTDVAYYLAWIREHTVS
T1 sequence (P00748 20-372 partner limits assumed): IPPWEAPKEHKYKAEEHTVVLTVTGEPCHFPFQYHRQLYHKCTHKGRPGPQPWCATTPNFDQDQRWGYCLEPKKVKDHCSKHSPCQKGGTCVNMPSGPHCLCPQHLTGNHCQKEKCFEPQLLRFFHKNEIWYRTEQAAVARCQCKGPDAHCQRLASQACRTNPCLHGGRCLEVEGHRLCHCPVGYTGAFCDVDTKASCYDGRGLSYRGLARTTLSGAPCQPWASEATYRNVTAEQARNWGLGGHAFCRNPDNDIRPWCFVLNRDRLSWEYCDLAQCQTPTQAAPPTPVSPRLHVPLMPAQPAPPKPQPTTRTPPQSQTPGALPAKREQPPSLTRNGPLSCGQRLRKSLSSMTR
Procedure: Materials • S2302 From Chromogenic, lot # N0398718 SEQ0860, exp. date 2012-07. Water added on 7 Oct. […] On 3 Aug. […] Product code FXIIa 1212A, lot #FXIIa 2520PL. Bottle with 0.5 mg was reconstituted with 370 μl pure water. […] Buffer 4 mM NaAc, 150 mM NaCl (pH 5.3). Preparation was divided into 20 μl amounts and frozen at −80° C. • Hepes735 140 mM NaCl, 20 mM Hepes, 0.02% NaN3 (pH 7.35). • BSA5 Hepes735+5 mg/ml BSA. • CTI Prepared on 17 Dec. 2004, 0.141 mg/ml, i.e. 0.141/12028=11.7*10^−6 M (11.7 μM). One portion was thawed and divided into 3 parts. […]
(§1) Stock FXIIa was diluted 700× in BSA5. The inhibitor was diluted in BSA5 as indicated. Wells contained 70 μl diluted FXIIa (5 nM final), 70 μl inhibitor and 20 μl S2302 (475 or 462.5 μM final). The reaction was started after 5 min heating on the heating plate with S2302. Filters 405 nm and 490 nm reference. Found ΔmA/min was multiplied by 2.14 to get the figure for a 1 cm path.
The residual activity (V) was fitted against the inhibitor concentration with equation:
(§2) V=(E+(sqrt(Ê2+2*E*(Ki−I)+Î2+2*I*Ki+Kî2)−E−I−Ki)/2)*kcat*S/(Km+S)
(§3) in which E=[FXIIa], Ki is the dissociation constant, I=[Inhibitor], kcat and Km are Michaelis constants and S=[S2302].
To calculate the concentration of I the equation I=x·(x−E−Ki)/(x−E) was used. In this equation is I the calculated inhibitor concentration, x=the residual activity of FXIIa (free FXIIa), E the total FXIIa concentration (=9.33 nM), and Ki the dissociation or inhibitor constant.

h-FXIIa [2] = biological target: T1, h-FXIIa; assay: Effect of inhibitors on hydrolysis of S2302 by h-FXIIa; format: biochemical
Procedure: Materials • S2302 From Chromogenic, lot # N0398718 SEQ0860, exp. date 2012-07. Water added on 7 Oct. […] On 3 Aug. […] Product code FXIIa 1212A, lot #FXIIa 2520PL. Bottle with 0.5 mg was reconstituted with 370 μl pure water. […] Buffer 4 mM NaAc, 150 mM NaCl (pH 5.3). Preparation was divided into 20 μl amounts and frozen at −80° C. • Hepes735 140 mM NaCl, 20 mM Hepes, 0.02% NaN3 (pH 7.35). • BSA5 Hepes735+5 mg/ml BSA. • CTI Prepared on 17 Dec. 2004, 0.141 mg/ml, i.e. 0.141/12028=11.7*10^−6 M (11.7 μM). One portion was thawed and divided into 3 parts. Part 1 was frozen at −80° C.; part 2 was kept at RT; and part 3 was incubated 30 min at 95° C. and then kept at RT.
as §1, with “mΔA/min” for “ΔmA/min”
The residual activity (V) was fitted against the PTI concentration with equation:
as §2, §3

[3] = ki F.XIIa (ng/ml), Before heating

CC[C@H](C)[C@@H]1NC(=O)[C@@H]2CSSC[C@H](NC(=O)[C@@H](NC(=O)[C@@H](N)CCCNC(=N)N)C(C)C)C(=O)N3CCC[C@H]3C(=O)N[C@@H](CCCCN)C(=O)N[C@@H]([C@@H](C)CC)C(=O)N[C@@H](CC(C)C)C(=O)N[C@@H](CCSC)C(=O)N[C@@H](CCC(=O)O)C(=O)N[C@H]3CSSC[C@H](NC1=O)C(=O)N[C@@H](CC(C)C)C(=O)N[C@@H](CCC(=O)O)C(=O)N[C@@H](Cc1c[nH]cn1)C(=O)NCC(=O)N[C@@H](Cc1ccc(O)cc1)C(=O)N[C@H](C(=O)NCC(=O)O)CSSC[C@H](NC(=O)[C@H](CC(=O)O)NC(=O)[C@H](CO)NC(=O)[C@H](CC(=O)O)NC(=O)[C@H](CCCCN)NC(=O)[C@H](CCCCN)NC3=O)C(=O)N[C@@H](CC(C)C)C(=O)N[C@@H](C)C(=O)N[C@@H](CCC(=O)O)C(=O)N2 [TICA4] (H-RVCPKILMECKKDSDCLAECICLEHGYCG-OH; disulfide 3-20, 10-22, 16-28 (inferred); N-terminus and C-terminus assumed)
4 × lag-time (ng/ml) (contact activation; After heating): 102.9 ng/mL | 4 × lag-time (μM) (contact activation; After heating): 31.4 µM | 4 × lag-time (ng/ml) (contact activation; Before heating): 102.7 ng/mL | 4 × lag-time (μM) (contact activation; Before heating): 31.6 µM | Res. Act. (%) (h-FXIIa [1]; inhibitor 30 min 95° C.): 94% | Res. Act. (%) (h-FXIIa [1]; inhibitor at RT during 72 hrs): 98% | Res. Act. (%) (h-FXIIa [1]; inhibitor kept at −80° C.): 100% | Ki (h-FXIIa [2]; ki F.XIIa (nM), Before heating): 1420 nM | Ki (h-FXIIa [2]; [3]): 1420 nM

CC[C@H](C)[C@@H]1NC(=O)[C@H](CCCNC(=N)N)NC(=O)[C@@H]2CCCN2C(=O)[C@@H](NC(=O)[C@@H](NC(=O)[C@@H](N)CCCNC(=N)N)C(C)C)CSSC[C@@H]2NC(=O)[C@H](CCC(=O)O)NC(=O)[C@H](C)NC(=O)[C@H](CC(C)C)NC(=O)[C@@H]3CSSC[C@@H](C(=O)NCC(=O)O)NC(=O)[C@H](Cc4ccc(O)cc4)NC(=O)CNC(=O)[C@H](Cc4c[nH]cn4)NC(=O)[C@H](CCC(=O)O)NC(=O)[C@H](CC(C)C)NC(=O)[C@H](CSSC[C@H](NC(=O)[C@H](CCC(=O)O)NC(=O)[C@H](CCSC)NC(=O)[C@H](CC(C)C)NC1=O)C(=O)N[C@@H](CCCCN)C(=O)N[C@@H](CCCCN)C(=O)N[C@@H](CC(=O)O)C(=O)N[C@@H](CO)C(=O)N[C@@H](CC(=O)O)C(=O)N3)NC(=O)[C@H](C(C)C)NC2=O [TICA2] (H-RVCPRILMECKKDSDCLAECVCLEHGYCG-OH; disulfide 3-20, 10-22, 16-28 (inferred); N-terminus and C-terminus assumed)
4 × lag-time (ng/ml) (contact activation; After heating): 31.9 ng/mL | 4 × lag-time (μM) (contact activation; After heating): 9.8 µM | 4 × lag-time (ng/ml) (contact activation; Before heating): 31.1 ng/mL | 4 × lag-time (μM) (contact activation; Before heating): 9.6 µM | Res. Act. (%) (h-FXIIa [1]; inhibitor 30 min 95° C.): 99% | Res. Act. (%) (h-FXIIa [1]; inhibitor at RT during 72 hrs): 105% | Res. Act. (%) (h-FXIIa [1]; inhibitor kept at −80° C.): 100% | Ki (h-FXIIa [2]; Ki, Table 2, inhibitory activity of different polypeptides): 109 nM | Ki (h-FXIIa [2]; [3]): 109 nM
